Laboratory results as given in patent publication US20040138137A1, “Alloferons - immunomodulatory peptides” (Entopharm Co., Ltd., priority 1999, published 2004).
Read-outs that look alike come from different tables or passages of the source. Marks after values point to notes of the source that are not given here. Ends that are not written are not given here.

Tests used:
[1] = system: peripheral blood lymphocytes (PBL) in healthy donors; K562 cell line; test: PBL cytotoxicity in healthy donors, K562 targets; details: for Cytotoxicity index, M ± m, %: healthy donor 16, K562, 5 ng/ml, lymphocyte:target 20:1, control −3.5 ± 7.4; for Donors responding by statistically approved increase of cytotoxic activity against K562 or A431: out of 17 healthy donors
Protocol: (§1) H3-uridine labeled K562 human leukemia cells were used as targets for a cytotoxic lymphocytes' attack. […] Then the proportion of killed and normal target cells and the corresponding cytotoxicity indices were determined in control and experimental groups.
(§2) The lymphocytes were diluted up to 2×10^6 cells/ml and immediately used for the cytotoxicity analysis.
(§3) Two kinds of target cells were used in the study simultaneously: the K562 cell line originated from erythromyeloid leukemia cells and the A431 cell line originated from the solid colorectal tumor. The proportion of lymphocytes and target cells (E/T ratio) in the trial was 20:1.

[2] = system: human peripheral blood lymphocytes; K562 cancer cells; test: Cytotoxic activity of human peripheral blood lymphocytes against K562 cancer cells
Protocol: as §1, §2

[3] = system: peripheral blood lymphocytes (PBL) in cancer patients; A431; test: PBL cytotoxicity in cancer patients, A431 targets; details: for Cytotoxicity index, %: A431, lymphocyte:target 20:1
Protocol: as §1, §2, §3

[4] = system: peripheral blood lymphocytes (PBL) in healthy donors; A431 cell line; details: 17 healthy donors
Protocol: as §1, §2, §3

[5] = system: peripheral blood lymphocytes (PBL) in cancer patients; K562; details: 18 cancer patients; for Positive responses proportion, K562 or A531: either target
Protocol: as §1, §2, §3

[6] = therapeutic and 10-fold administration
[7] = therapeutic and 10-fold administration; remark: listed apart in the source
[8] = system: E. coli test-line PQ37; test: DNA SOS-reparation; type: cell-based
[9] = Toxicity evaluation, panel of in vitro and in vivo models (overall statement); details: in vivo and in vitro studies
Protocol: The toxicity of alloferon was tested using a panel of in vitro and in vivo models.

[10] = therapeutic and 10-fold administration; remark: listed apart in the source
[11] = system: Salmonella tiphimurium; test: Ames test; type: cell-based; details: 0.1-1000 microgram/Petri dish; 3 test line
[12] = system: fat cells; details: therapeutic and 10-fold administration
[13] = system: mouse spleen lymphocytes; K562 human leukemia cells
Protocol: as §1

[14] = system: mouse bone marrow cells; details: single dose 0.5 and 15 mg/kg and fivefold dose 0.5 mg/kg
[15] = Acute toxicity in mice; type: in vivo; details: 500-6000 mg/kg in mice
[16] = Acute toxicity in rats; type: in vivo
[17] = subcutaneous injection 1.5 and 15 mg/kg into pregnant rats
[18] = Subacute and chronic toxicity in rats; type: in vivo; details: 0.2, 2 and 20 mg/kg once a day during 90 days
[19] = system: mouse germ cells; test: Dominant lethal mutations in the mouse germ cells; type: in vivo; details: 15 mg/kg
[20] = system: human influenza virus A strain A/Aichi/2/68 (cerotype H3N2); type: in vivo, mice
[21] = system: human peripheral blood lymphocytes; A431 tumor cells; test: Cytotoxic activity of human PBL against A431 tumor cells, alloferon 1 analogs; details: 5 ng/ml; A431 targets; control −6.0 ± 8.1
Protocol: The mononuclear fraction isolated from the blood of healthy donors and target cell of the A431 cell line were co-incubated in the presence of one of the preparations: alloferon 1, alloferon 3, alloferon 4 or interferon-alpha 2b (positive control). The preparation's concentration in all cases was 5 ng/ml. Cytotoxicity index excess over the untreated control was used as the efficacy criterion.

[22] = 17 healthy donors, K562 or A431
[23] = patient 11, Uterus cancer, control 93.3 ± 1.0
[24] = patient 14, Non-Hodgkin lymphoma, control −40.0 ± 20.5

Interferon-alpha 2b
Positive responses coincidence: Donors selectively sensitive to the preparation [1, 22]: 1/17 = 6% | Positive responses coincidence: Interferon and alloferon sensitive donors [1, 22]: 9/17 = 53% | Positive responses proportion, K562 or A531 ([1]; 17 healthy donors, either target): 10/17 = 59% | Positive responses proportion, K562 ([1]; 17 healthy donors, positive response = statistically significant increase of lymphocyte cytotoxicity index): 7/17 = 41% | Cytotoxicity index, M ± m, % [1]: 5.0 ± 4.7% | Donors responding by statistically approved increase of cytotoxic activity against K562 or A431 [1]: 10 donors | Efficacy compared to alloferon at 0.05-0.5 ng/ml ([2]; 5 ng/ml): less effective | Positive responses proportion, A431 ([3]; 18 cancer patients): 8/18 = 44% | Cytotoxicity index, % [3, 23]: 93.5 ± 0.9% | Cytotoxicity index, % [3, 24]: 26.0 ± 8.9 % | Positive responses proportion, A431 [4]: 4/17 = 24% | Positive responses coincidence: Donors selectively sensitive to the preparation ([5]; K562 or A431): 4/18 = 22% | Positive responses coincidence: Interferon and alloferon sensitive donors ([5]; K562 or A431): 7/18 = 38% | Positive responses proportion, K562 or A531 ([5]; listed as Interferon): 10/18 = 56% | Positive responses proportion, K562 or A531 ([5]; listed as interferon): 56% | Positive responses proportion, K562 ([5]; positive response = statistically significant increase of lymphocyte cytotoxicity index): 6/18 = 33%

HGVSGHGQHGVHG [Alloferon 1]
Immune complexes reaction [6]: The reaction was not found under alloferon | Reaction of delayed hypersensitivity [7]: The reaction was not found under alloferon | DNA SOS-reparation, DNA-damaging activity [8]: Alloferon has no DNA-damaging activity in the E. coli | Cytotoxicity index, M ± m, % [1]: 18.5 ± 1.7 % | Donors responding by statistically approved increase of cytotoxic activity against K562 or A431 [1]: 10 donors | Overall toxicity (words) ([9]; listed as Alloferon): practically nontoxic | Overall toxicity (words) ([9]; listed as alloferon): No signs of acute or chronic toxicity | Overall toxicity (words) ([9]; listed as alloferon 1): Neither an acute nor a chronic toxicity | Conjunctive probe [10]: The reaction was not found under alloferon | Anaphylactic shock (10-fold therapeutic dose, registered in 1 male, 12 guinea pigs): dosage. Minimal response (short term unrest, nose | Anaphylactic shock (therapeutic dosage, guinea pigs): No signs of anaphylaxy were found at therapeutic | Ames test, gene mutations [11]: microgram/Petri dish did not induce gene mutations | Indirect reaction of fat cells degranulation [12]: Fat cells degranulation rate was not changed under | Effective in vitro concentration, stimulation of mouse spleen lymphocytes' cytotoxic activity [13]: 0.05 to 50 ng/mL | Concentration from which PBLs' cytotoxicity against K562 was significantly increased [2]: ≥ 0.0005 nanogram/ml | Effective in vitro concentration, stimulation of human peripheral blood lymphocytes' cytotoxic activity [2]: 0.0005 to 500 ng/mL | Chromosome aberrations in the mouse bone marrow cells [14]: fivefold dose 0.5 mg/kg did not induce chromosome | Effective in vitro concentration, stimulation of peripheral blood lymphocytes' cytotoxic activity in cancer patients ([3]; cancer patients): 5 ng/mL | Cytotoxicity index, % [3, 23]: 94.3 ± 0.4% | Cytotoxicity index, % [3, 24]: 15.3 ± 4.8 % | Acute toxicity, animal growth, feeding, macroscopical structure of organs, injection place [15]: highest dose. No changes in animal growth, feeding, | Acute toxicity, mortality ([15]; single subcutaneous and intragastric administration): Mortality was not registered in any dose including | Acute toxicity, animal growth, feeding, macroscopical structure of organs, injection place ([16]; 300-5000 mg/kg in rats): highest dose. No changes in animal growth, feeding, | Toxic/therapeutic dose ratio ([16]; rats): ratio >35700 times | Acute toxicity, mortality ([16]; single subcutaneous and intragastric administration, 300-5000 mg/kg in rats): Mortality was not registered in any dose including | Embriotoxicity and influence on the reproductive function [17]: Alloferon administration did not cause negative | Subacute and chronic toxicity, mortality [18]: None animal died during 90 day period. | Subacute and chronic toxicity, physiological, hematological, biochemical, pathomorphological and histological data [18]: testicles, ovary) data did not show negative changes | Dominant lethal mutations in the mouse germ cells [19]: Alloferon in the dose 15 mg/kg did not induce

CC(N)C12CC3CC(CC(C3)C1)C2 (stereo not drawn) [Remantadin]
Mortality 10 days after virus inoculation, % ([20]; 1000 microgram per mouse per os, control 65): 5*** % | Protection from lethal pulmonary lesions caused by the influenza virus ([20]; mouse, in vivo, sc): effectively protected

VSGHGQHGVH [Alloferon 3]
Average cytotoxicity index, M ± m, % [21]: 60.2 ± 2.7%
